BindingDB's records for doi:10.1002/bip.20588 (University of California Davis, 2006)
*1 amine or outer side, *2 acyl side, *3 side chain or, on linkers, in order; H or OH if unused. Where a SMILES comes first, the peptide text is derived from it. [ ]: non-standard residue; d: D form. The star is where a group is joined. ξ: configuration not given here. Pro(5R-Ph) = O=C(O)[C@@H]1CC[C@H](c2ccccc2)N1; X5 = O=C(c1ccc(-c2ccc(N[*:1])cc2)o1)[*:2]; NH(2,6-Me2-phenyl) = Cc1cccc(C)c1N*; X14 = Cc1ccccc1NC(=O)Nc1ccc(N*)cc1; X1 = O=C(Cc1ccc(N[*:1])cc1)[*:2]; Ile(3ξ) = CCC(C)[C@H](N)C(=O)O; NH(2-Me-phenyl) = Cc1ccccc1N*; β3hP = O=C(O)C[C@@H]1CCCN1; Isovaleryl = CC(C)CC(=O)*; Heptanoyl = CCCCCCC(=O)*; Nle = CCCC[C@H](N)C(=O)O; Dap = NC[C@H](N)C(=O)O; X11 = CC(C)c1ccccc1N*; Aib = CC(C)(N)C(=O)O; CO = O=C([*:1])[*:2]; Butyryl = CCCC(=O)*

These compounds were tested against Integrin alpha-4/beta-1 (Homo sapiens, UniProt P05556+P13612, T112H) (assay: Jurkat Cell Adhesion Inhibition Assay). Conditions: not given.
Procedure: Binding affinities (IC50) of the ligands were studied in a Jurkat cell adhesion assay by inhibiting the alpha-4/beta-1 mediated cell adhesion to CS-1 peptides. The 96-well plates were coated with neutravidin, followed by biotinconjugated CS-1 peptides. Jurkat cells with series dilutions of tested ligands in binding buffer were added and allowed to bind for 30 min. Bound cells were recorded using a 96-well plate reader at 570 nm. IC50 values were calculated from inhibition curves resulting from the concentration-dependent inhibition

Row | IC50 [nM] | SMILES
1 | 63 | CCC(C)[C@H](NC(=O)[C@H](CC(=O)O)NC(=O)[C@H](CNC(=O)CC(C)C)NC(=O)Cc1ccc(NC(=O)Nc2ccccc2C)cc1)C(=O)N1CCC[C@H]1C(N)=O (stereo partly drawn) [(3S)-3-{[(2S,3S)-1-[(2S)-2-carbamoylpyrrolidin-1-yl]-3-methyl-1-oxopentan-2-yl]carbamoyl}-3-[(2S)-3-(3-methylbutanamido)-2-[1-(4-{[(2-methylphenyl)carbamoyl]amino}phenyl)acetamido]propanamido]propanoic acid] ({NH(2-Me-phenyl)-CO}-[X1][Dap](Isovaleryl)D[Ile(3ξ)]P-NH2)
2 | 138 | CCCC(=O)NC[C@H](NC(=O)Cc1ccc(NC(=O)Nc2ccccc2C)cc1)C(=O)N[C@@H](CC(=O)O)C(=O)N[C@H](C(=O)N1CCC[C@H]1C(N)=O)C(C)CC (stereo partly drawn) [(3S)-3-[(2S)-3-butanamido-2-[1-(4-{[(2-methylphenyl)carbamoyl]amino}phenyl)acetamido]propanamido]-3-{[(2S,3S)-1-[(2S)-2-carbamoylpyrrolidin-1-yl]-3-methyl-1-oxopentan-2-yl]carbamoyl}propanoic acid] ({NH(2-Me-phenyl)-CO}-[X1][Dap](Butyryl)D[Ile(3ξ)]P-NH2)
3 | 340 | CCCC[C@H](NC(=O)c1ccc(-c2ccc(NC(=O)Nc3ccccc3C)cc2)o1)C(=O)N[C@@H](CC(=O)O)C(=O)N[C@H](C(=O)N1CCC[C@H]1C(N)=O)C(C)CC (stereo partly drawn) [(3S)-3-{[(2S,3S)-1-[(2S)-2-carbamoylpyrrolidin-1-yl]-3-methyl-1-oxopentan-2-yl]carbamoyl}-3-[(2S)-2-{[5-(4-{[(2-methylphenyl)carbamoyl]amino}phenyl)furan-2-yl]formamido}hexanamido]propanoic acid] ({NH(2-Me-phenyl)-CO}-[X5][Nle]D[Ile(3ξ)]P-NH2)
4 | 54 | CCCC[C@H](NC(=O)Nc1ccc(NC(=O)Nc2ccccc2C)cc1)C(=O)N[C@@H](CC(=O)O)C(=O)N[C@H](C(=O)N1CCC[C@H]1C(N)=O)C(C)CC (stereo partly drawn) [(3S)-3-{[(2S,3S)-1-[(2S)-2-carbamoylpyrrolidin-1-yl]-3-methyl-1-oxopentan-2-yl]carbamoyl}-3-[(2S)-2-{[(4-{[(2-methylphenyl)carbamoyl]amino}phenyl)carbamoyl]amino}hexanamido]propanoic acid] ({X14-CO}-[Nle]D[Ile(3ξ)]P-NH2)
5 | 0.6 | CCCC[C@H](NC(=O)Cc1ccc(NC(=O)Nc2ccccc2C)cc1)C(=O)N[C@@H](CC(=O)O)C(=O)N[C@H](C(=O)N1CCC[C@H]1C(N)=O)C(C)C [(3S)-3-{[(2S)-1-[(2S)-2-carbamoylpyrrolidin-1-yl]-3-methyl-1-oxobutan-2-yl]carbamoyl}-3-[(2S)-2-[1-(4-{[(2-methylphenyl)carbamoyl]amino}phenyl)acetamido]hexanamido]propanoic acid] ({NH(2-Me-phenyl)-CO}-[X1][Nle]DVP-NH2)
6 | 312 | CCCCCCC(=O)NC[C@H](NC(=O)Cc1ccc(NC(=O)Nc2ccccc2C)cc1)C(=O)N[C@@H](CC(=O)O)C(=O)N[C@H](C(=O)N1CCC[C@H]1C(N)=O)C(C)CC (stereo partly drawn) [(3S)-3-{[(2S,3S)-1-[(2S)-2-carbamoylpyrrolidin-1-yl]-3-methyl-1-oxopentan-2-yl]carbamoyl}-3-[(2S)-3-heptanamido-2-[1-(4-{[(2-methylphenyl)carbamoyl]amino}phenyl)acetamido]propanamido]propanoic acid] ({NH(2-Me-phenyl)-CO}-[X1][Dap](Heptanoyl)D[Ile(3ξ)]P-NH2)
7 | 7.2 | CCCC[C@H](NC(=O)Cc1ccc(NC(=O)Nc2c(C)cccc2C)cc1)C(=O)N[C@@H](CC(=O)O)C(=O)N[C@H](C(=O)N1CCC[C@H]1C(N)=O)C(C)CC (stereo partly drawn) [(3S)-3-{[(2S,3S)-1-[(2S)-2-carbamoylpyrrolidin-1-yl]-3-methyl-1-oxopentan-2-yl]carbamoyl}-3-[(2S)-2-[1-(4-{[(2,6-dimethylphenyl)carbamoyl]amino}phenyl)acetamido]hexanamido]propanoic acid] ({NH(2,6-Me2-phenyl)-CO}-[X1][Nle]D[Ile(3ξ)]P-NH2)
8 | 531 | CCCC[C@H](NC(=O)Cc1ccc(NC(=O)Nc2ccccc2C(C)C)cc1)C(=O)N[C@@H](CC(=O)O)C(=O)N[C@H](C(=O)N1CCC[C@H]1C(N)=O)C(C)CC (stereo partly drawn) [(3S)-3-{[(2S,3S)-1-[(2S)-2-carbamoylpyrrolidin-1-yl]-3-methyl-1-oxopentan-2-yl]carbamoyl}-3-[(2S)-2-{1-[4-({[2-(propan-2-yl)phenyl]carbamoyl}amino)phenyl]acetamido}hexanamido]propanoic acid] ({X11-CO}-[X1][Nle]D[Ile(3ξ)]P-NH2)
9 | 13 | CCCC[C@H](NC(=O)Cc1ccc(NC(=O)Nc2ccccc2C)cc1)C(=O)N[C@@H](CC(=O)O)C(=O)NC(C)(C)C(=O)N1CCC[C@H]1C(N)=O [(3S)-3-({1-[(2S)-2-carbamoylpyrrolidin-1-yl]-2-methyl-1-oxopropan-2-yl}carbamoyl)-3-[(2S)-2-[1-(4-{[(2-methylphenyl)carbamoyl]amino}phenyl)acetamido]hexanamido]propanoic acid] ({NH(2-Me-phenyl)-CO}-[X1][Nle]D[Aib]P-NH2)

Same assay, conditions: pH 7.5; 22 °C

Row | IC50 [nM] | SMILES
10 | 4 | CCCC[C@H](NC(=O)Cc1ccc(NC(=O)Nc2ccccc2C)cc1)C(=O)N[C@@H](CC(=O)O)C(=O)N[C@H](C(=O)N1CCCC(C(N)=O)C1)C(C)CC (stereo partly drawn) [(3S)-3-{[(2S,3S)-1-(3-carbamoylpiperidin-1-yl)-3-methyl-1-oxopentan-2-yl]carbamoyl}-3-[(2S)-2-[1-(4-{[(2-methylphenyl)carbamoyl]amino}phenyl)acetamido]hexanamido]propanoic acid]
11 | 3.3 | CCCC[C@H](NC(=O)Cc1ccc(NC(=O)Nc2ccccc2C)cc1)C(=O)N[C@@H](CC(=O)O)C(=O)N[C@H](C(=O)N1CCC(C(N)=O)CC1)C(C)CC (stereo partly drawn) [(3S)-3-{[(2S,3S)-1-(4-carbamoylpiperidin-1-yl)-3-methyl-1-oxopentan-2-yl]carbamoyl}-3-[(2S)-2-[1-(4-{[(2-methylphenyl)carbamoyl]amino}phenyl)acetamido]hexanamido]propanoic acid]
12 | 3.1 | CCCC[C@H](NC(=O)Cc1ccc(NC(=O)Nc2ccccc2C)cc1)C(=O)N[C@@H](CC(=O)O)C(=O)N[C@H](C(=O)N1CCC[C@H]1CC(N)=O)C(C)CC (stereo partly drawn) [(3S)-3-{[(2S,3S)-1-[(2S)-2-(carbamoylmethyl)pyrrolidin-1-yl]-3-methyl-1-oxopentan-2-yl]carbamoyl}-3-[(2S)-2-[1-(4-{[(2-methylphenyl)carbamoyl]amino}phenyl)acetamido]hexanamido]propanoic acid] ({NH(2-Me-phenyl)-CO}-[X1][Nle]D[Ile(3ξ)][β3hP]-NH2)
13 | 3.4 | CCCC[C@H](NC(=O)Cc1ccc(NC(=O)Nc2ccccc2C)cc1)C(=O)N[C@@H](CC(=O)O)C(=O)N[C@H](C(=O)NC1CCCC1C(N)=O)C(C)CC (stereo partly drawn) [(3S)-3-{[(1S,2S)-1-[(2-carbamoylcyclopentyl)carbamoyl]-2-methylbutyl]carbamoyl}-3-[(2S)-2-[1-(4-{[(2-methylphenyl)carbamoyl]amino}phenyl)acetamido]hexanamido]propanoic acid]
14 | 38 | CCCC[C@H](NC(=O)Cc1ccc(NC(=O)Nc2ccccc2C)cc1)C(=O)N[C@@H](CC(=O)O)C(=O)N[C@H](C(=O)N1[C@@H](c2ccccc2)CC[C@H]1C(N)=O)C(C)CC (stereo partly drawn) [(3S)-3-{[(2S,3S)-1-[(2S,5R)-2-carbamoyl-5-phenylpyrrolidin-1-yl]-3-methyl-1-oxopentan-2-yl]carbamoyl}-3-[(2S)-2-[1-(4-{[(2-methylphenyl)carbamoyl]amino}phenyl)acetamido]hexanamido]propanoic acid] ({NH(2-Me-phenyl)-CO}-[X1][Nle]D[Ile(3ξ)][Pro(5R-Ph)]-NH2)
